From PubChem BioAssay AID1259411 (Chemical Carcinogenesis Research Information System (CCRIS), 2018)
Calls of active or inactive are those of the source. How the calls were made is not given here.

Tested on: rodent carcinogenicity bioassays, tumor incidence
Test: CCRIS carcinogenicity studies
Conditions: Species: MOUSE
How it was run: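 NCI-built, expert-reviewed records of carcinogenicity and related test outcomes (mutagenicity, tumor promotion/inhibition) compiled from published and report sources, historical span 1985-2011, not updated.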

What does the source list for `c1ccc2c(c1)cc1ccc3cccc4ccc2c1c34`?
carcinogen call (Strain/Sex: NIGP(S)/FEMALE, Route: SUBCUTANEOUS, Dose: 0, 0.5, 1 MG IN 1% AQUEOUS GELATIN INJECTED IN THE SCAPULAR REGION OF NEWBORN MICE ONCE (STUDY DURATION: 9 WK), Dose: 0, 0.5, 1 MG IN 1% AQUEOUS GELATIN INJECTED IN THE SCAPULAR REGION OF NEWBORN MICE ONCE (STUDY DURATION: 9 WK), Tumor Site: Type of Lesion: LUNG: ADENOMA): active; positive; carcinogen call (Strain/Sex: NIGP(S)/FEMALE, Route: SUBCUTANEOUS, Dose: 0, 40, 62.5, 125, 250, 500, 1000 UG INJECTED IN THE SCAPULAR REGION OF NEWBORN MICE ONCE (STUDY DURATION: 9 WK), Dose: 0, 40, 62.5, 125, 250, 500, 1000 UG INJECTED IN THE SCAPULAR REGION OF NEWBORN MICE ONCE (STUDY DURATION: 9 WK), Tumor Site: Type of Lesion: LUNG: ADENOMA): active; positive; carcinogen call (Strain/Sex: NIGP(S)/MALE, Route: SUBCUTANEOUS, Dose: 0, 0.5, 1 MG IN 1% AQUEOUS GELATIN INJECTED IN THE SCAPULAR REGION OF NEWBORN MICE ONCE (STUDY DURATION: 9 WK), Dose: 0, 0.5, 1 MG IN 1% AQUEOUS GELATIN INJECTED IN THE SCAPULAR REGION OF NEWBORN MICE ONCE (STUDY DURATION: 9 WK), Tumor Site: Type of Lesion: LUNG: ADENOMA): active; positive; carcinogen call (Strain/Sex: NIGP(S)/MALE, Route: SUBCUTANEOUS, Dose: 0, 40, 62.5, 125, 250, 500, 1000 UG INJECTED IN THE SCAPULAR REGION OF NEWBORN MICE ONCE (STUDY DURATION: 9 WK), Dose: 0, 40, 62.5, 125, 250, 500, 1000 UG INJECTED IN THE SCAPULAR REGION OF NEWBORN MICE ONCE (STUDY DURATION: 9 WK), Tumor Site: Type of Lesion: LUNG: ADENOMA): active; positive; carcinogen call (Strain/Sex: SENCAR/FEMALE, Route: DERMAL, Dose: 0, 12.6, 25.2, 50.2, 101, 202 UG/WK FOR 50-52 WK (STUDY DURATION: 1 YR), Dose: 0, 12.6, 25.2, 50.2, 101, 202 UG/WK FOR 50-52 WK (STUDY DURATION: 1 YR), Tumor Site: Type of Lesion: SKIN: CARCINOMA): active; positive; carcinogen call (Strain/Sex: SENCAR/MALE, Route: DERMAL, Dose: 0, 12.6, 25.2, 50.5, 101, 202 UG/WK FOR 50-52 WK (STUDY DURATION: 1 YR), Dose: 0, 12.6, 25.2, 50.5, 101, 202 UG/WK FOR 50-52 WK (STUDY DURATION: 1 YR), Tumor Site: Type of Lesion: SKIN: CARCINOMA): active; positive; carcinogen call (Strain/Sex: STRAIN-A/FEMALE, Route: GAVAGE, Dose: 0, 1, 2, 3 UMOL IN 0.1 ML COTTONSEED OIL 1/WK FOR 8 WK (STUDY DURATION: 26 WK), Dose: 0, 1, 2, 3 UMOL IN 0.1 ML COTTONSEED OIL 1/WK FOR 8 WK (STUDY DURATION: 26 WK), Tumor Site: Type of Lesion: LUNG: ADENOMA, FORESTOMACH: TUMOR): active; positive; carcinogen call (Strain/Sex: STRAIN-A/FEMALE, Route: INTRAPERITONEAL, Dose: 0, 1, 2, 3 UMOL IN 0.1 ML COTTONSEED OIL 1/WK FOR 8 WK (STUDY DURATION: 26 WK), Dose: 0, 1, 2, 3 UMOL IN 0.1 ML COTTONSEED OIL 1/WK FOR 8 WK (STUDY DURATION: 26 WK), Tumor Site: Type of Lesion: LUNG: ADENOMA, FORESTOMACH: TUMOR): active; positive; carcinogen call (Strain/Sex: STRAIN-A/FEMALE, Route: INTRATRACHEAL, Dose: 0, 0.5, 1 MG ON CHARCOAL POWDER INSTILLED 8 TIMES (STUDY DURATION: 13 WK), Dose: 0, 0.5, 1 MG ON CHARCOAL POWDER INSTILLED 8 TIMES (STUDY DURATION: 13 WK), Tumor Site: Type of Lesion: LUNG: SQUAMOUS CELL CARCINOMA OR ADENOCARCINOMA): active; positive; carcinogen call (Strain/Sex: STRAIN-A/FEMALE, Route: ORAL, Dose: 0, 16, 98 PPM IN DIET FOR 260 D (STUDY DURATION: 260 D), Dose: 0, 16, 98 PPM IN DIET FOR 260 D (STUDY DURATION: 260 D), Tumor Site: Type of Lesion: LUNG: TUMOR, FORESTOMACH: TUMOR): active; positive; carcinogen call (Strain/Sex: STRAIN-A/FEMALE, Route: SUBCUTANEOUS, Dose: 0, 0.5, 1 MG IN 1% AQUEOUS GELATIN INJECTED IN THE SCAPULAR REGION OF NEWBORN MICE ONCE (STUDY DURATION: 9 WK), Dose: 0, 0.5, 1 MG IN 1% AQUEOUS GELATIN INJECTED IN THE SCAPULAR REGION OF NEWBORN MICE ONCE (STUDY DURATION: 9 WK), Tumor Site: Type of Lesion: LUNG: ADENOMA): active; positive; carcinogen call (Strain/Sex: STRAIN-A/FEMALE, Route: SUBCUTANEOUS, Dose: 0, 40, 62.5, 125, 250, 500, 1000 UG FOR 9 WK (STUDY DURATION: 9 WK), Dose: 0, 40, 62.5, 125, 250, 500, 1000 UG FOR 9 WK (STUDY DURATION: 9 WK), Tumor Site: Type of Lesion: LUNG: ADENOMA): active; positive; carcinogen call (Strain/Sex: STRAIN-A/FEMALE, Route: SUBCUTANEOUS, Dose: 0, 40, 62.5, 125, 250, 500, 1000 UG INJECTED IN THE SCAPULAR REGION OF NEWBORN MICE ONCE (STUDY DURATION: 9 WK), Dose: 0, 40, 62.5, 125, 250, 500, 1000 UG INJECTED IN THE SCAPULAR REGION OF NEWBORN MICE ONCE (STUDY DURATION: 9 WK), Tumor Site: Type of Lesion: LUNG: ADENOMA): active; positive; carcinogen call (Strain/Sex: STRAIN-A/MALE, FEMALE, Route: INTRAPERITONEAL, Dose: 2 MG, 1/WK, Tumor Site: Type of Lesion: PERITONEAL CAVITY: FIBROSARCOMA): active; positive; carcinogen call (Strain/Sex: STRAIN-A/MALE,FEMALE, Route: INTRAPERITONEAL, Tumor Site: Type of Lesion: PERITONEAL CAVITY: FIBROSARCOMA): active; positive; carcinogen call (Strain/Sex: STRAIN-A/MALE, Route: INTRAPERITONEAL, Dose: 0-200 MG/KG IN TRICAPRYLIN ONCE (STUDY DURATION: 8 MO), Tumor Site: Type of Lesion: LUNG: ADENOMA): active; positive; carcinogen call (Strain/Sex: STRAIN-A/MALE, Route: INTRAPERITONEAL, Dose: 0, 5, 10, 50, 100, 200 MG/KG BW ONCE (STUDY DURATION: 8 MO), Dose: 0, 5, 10, 50, 100, 200 MG/KG BW ONCE (STUDY DURATION: 8 MO), Tumor Site: Type of Lesion: LUNG: ADENOMA): active; positive; carcinogen call (Strain/Sex: STRAIN-A/MALE, Route: SUBCUTANEOUS, Dose: 0, 0.5, 1 MG IN 1% AQUEOUS GELATIN INJECTED IN THE SCAPULAR REGION OF NEWBORN MICE ONCE (STUDY DURATION: 9 WK), Dose: 0, 0.5, 1 MG IN 1% AQUEOUS GELATIN INJECTED IN THE SCAPULAR REGION OF NEWBORN MICE ONCE (STUDY DURATION: 9 WK), Tumor Site: Type of Lesion: LUNG: ADENOMA): active; positive; carcinogen call (Strain/Sex: STRAIN-A/MALE, Route: SUBCUTANEOUS, Dose: 0, 40, 62.5, 125, 250, 500, 1000 UG FOR 9 WK (STUDY DURATION: 9 WK), Dose: 0, 40, 62.5, 125, 250, 500, 1000 UG FOR 9 WK (STUDY DURATION: 9 WK), Tumor Site: Type of Lesion: LUNG: ADENOMA): active; positive; carcinogen call (Strain/Sex: STRAIN-A/MALE, Route: SUBCUTANEOUS, Dose: 0, 40, 62.5, 125, 250, 500, 1000 UG INJECTED IN THE SCAPULAR REGION OF NEWBORN MICE ONCE (STUDY DURATION: 9 WK), Dose: 0, 40, 62.5, 125, 250, 500, 1000 UG INJECTED IN THE SCAPULAR REGION OF NEWBORN MICE ONCE (STUDY DURATION: 9 WK), Tumor Site: Type of Lesion: LUNG: ADENOMA): active; positive; carcinogen call (Strain/Sex: SWISS/FEMALE, Route: DERMAL, Dose: 0, 1, 4, 8 NMOL IN 100 µL ACETONE 2/WK FOR 40 WK (STUDY DURATION: 48 WK), Dose: 0, 1, 4, 8 NMOL IN 100 µL ACETONE 2/WK FOR 40 WK (STUDY DURATION: 48 WK)): inactive; negative
